The record followed here is the Kinase Knowledgebase extract (Sharma et al. 2016).

Chain of MAPK14 (Q16539 whole entry, looked up): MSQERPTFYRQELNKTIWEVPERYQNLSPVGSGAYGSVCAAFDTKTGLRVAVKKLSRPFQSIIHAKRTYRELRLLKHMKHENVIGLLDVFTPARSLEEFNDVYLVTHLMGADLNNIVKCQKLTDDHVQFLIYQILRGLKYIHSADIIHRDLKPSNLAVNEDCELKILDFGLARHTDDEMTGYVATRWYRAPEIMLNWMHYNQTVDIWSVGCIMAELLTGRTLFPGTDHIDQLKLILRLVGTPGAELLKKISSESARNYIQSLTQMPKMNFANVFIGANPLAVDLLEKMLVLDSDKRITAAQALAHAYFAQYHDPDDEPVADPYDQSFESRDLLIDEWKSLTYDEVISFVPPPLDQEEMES

The test concerns the target MAPK14 (UniProt Q16539). Description: Inhibition of MAPK14 Kinase Activity.
For orientation: IC50 means the concentration that gives 50% inhibition. A lower IC50 goes with higher potency. Consider `CN(C)CC(=O)Nc1ccc2c(-c3c(-c4ccccn4)nn4c3CCC4)ccnc2c1`, for which the IC50 turned out to be 1460 nM.

Turning to `O=C(NCCO)Nc1ccc2c(-c3c(-c4ccccn4)nn4c3CCC4)ccnc2c1`, the IC50 came out at 1080 nM. Under `CC(=O)Nc1ccc2c(-c3c(-c4ccccn4)nn4c3CCC4)ccnc2c1` stands 1340 nM; under `COC(=O)Nc1ccc2c(-c3c(-c4ccccn4)nn4c3CCC4)ccnc2c1`, 526 nM; under `O=C1OCCN1c1ccc2c(-c3c(-c4ccccn4)nn4c3CCC4)ccnc2c1`, 2060 nM. Under `CN(C)CCC(=O)Nc1ccc2c(-c3c(-c4ccccn4)nn4c3CCC4)ccnc2c1` stands 2460 nM; under `O=C(Nc1ccc2c(-c3c(-c4ccccn4)nn4c3CCC4)ccnc2c1)Nc1ccc2c(-c3c(-c4ccccn4)nn4c3CCC4)ccnc2c1`, 4640 nM. In the case of `O=C(Nc1ccc2c(-c3c(-c4ccccn4)nn4c3CCC4)ccnc2c1)OCCO`, the IC50 came to 616 nM.

On to `COCCNC(=O)Nc1ccc2c(-c3c(-c4ccccn4)nn4c3CCC4)ccnc2c1`, for which the IC50 came out at 1050 nM. Under `CN(C)CCNC(=O)Nc1ccc2c(-c3c(-c4ccccn4)nn4c3CCC4)ccnc2c1` stands 867 nM; under `Nc1ccc2c(-c3c(-c4ccccn4)nn4c3CCC4)ccnc2c1`, 2570 nM.
